The term EC50 denotes the concentration at which the effect is half-maximal. By IC50 is commonly meant the midpoint of a concentration-inhibition curve. For orientation: AC50 means the concentration at which the activity in the assay is half-maximal. Usually CC50 stands for the concentration giving 50% cytotoxicity.

SMILES strings stand for the structures. Active and inactive are the calls of the source.

The target in assay [1] is Voltage-gated inwardly rectifying potassium channel KCNH2 (Homo sapiens, UniProt Q12809). The experiment in a line: concentration-dependent hERG rescue from blockers – cell-based, thallium flux, dose response (AID 2121). Type of assay: ADME. On the technique in general: hERG is a cardiac potassium channel; its block is linked to QT prolongation.
Assay [2] has as its target T1, Heat shock factor protein 1 (Mus musculus, UniProt P38532).
T1 sequence (P38532 whole entry): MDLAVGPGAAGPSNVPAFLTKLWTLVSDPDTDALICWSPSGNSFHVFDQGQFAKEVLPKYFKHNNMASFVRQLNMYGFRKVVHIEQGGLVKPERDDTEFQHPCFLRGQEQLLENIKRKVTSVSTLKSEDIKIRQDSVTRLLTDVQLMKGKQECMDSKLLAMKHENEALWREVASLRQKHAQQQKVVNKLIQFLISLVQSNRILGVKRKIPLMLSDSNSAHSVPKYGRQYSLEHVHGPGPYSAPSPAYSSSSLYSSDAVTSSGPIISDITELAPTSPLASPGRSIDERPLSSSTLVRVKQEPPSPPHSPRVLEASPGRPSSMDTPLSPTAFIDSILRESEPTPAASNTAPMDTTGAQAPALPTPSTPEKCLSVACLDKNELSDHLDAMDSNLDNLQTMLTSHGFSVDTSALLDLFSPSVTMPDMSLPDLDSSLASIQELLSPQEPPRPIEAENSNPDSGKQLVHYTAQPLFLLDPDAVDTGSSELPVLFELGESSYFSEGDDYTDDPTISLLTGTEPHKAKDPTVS
The experiment in a line: decrease of HSF1-responsive luciferase luminescence – cell-based, NIH3T3, dose retest, confirmation (AID 2382).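 Note: NIH3T3 fibroblasts with HSF1-driven luciferase reporter stressed by proteasome inhibitor MG132; luminescence from HSF1-driven luciferase expression after 8 hours of MG132 stress.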 Type of assay: functional.

For assay [3], the target named is Potassium voltage-gated channel subfamily KQT member 2 (Rattus norvegicus, UniProt O88943, W236L). The assay is described as follows: potentiation of rat KCNQ2 current – cell-based, automated electrophysiology, mechanism study for KCNQ2 potentiator project, dose response (AID 2603). Type of assay: functional.
The target in a further assay is Ephrin type-A receptor 4 (Mus musculus, UniProt Q03137). The experiment in a line: EphA4 ligand-binding antagonists – biochemical, colorimetric, mouse EphA4, primary screen (AID 689). Type of assay: functional.
For assay [4], the target named is T2, Sphingosine 1-phosphate receptor 4 (Homo sapiens, UniProt O95977).
T2 sequence (O95977 whole entry): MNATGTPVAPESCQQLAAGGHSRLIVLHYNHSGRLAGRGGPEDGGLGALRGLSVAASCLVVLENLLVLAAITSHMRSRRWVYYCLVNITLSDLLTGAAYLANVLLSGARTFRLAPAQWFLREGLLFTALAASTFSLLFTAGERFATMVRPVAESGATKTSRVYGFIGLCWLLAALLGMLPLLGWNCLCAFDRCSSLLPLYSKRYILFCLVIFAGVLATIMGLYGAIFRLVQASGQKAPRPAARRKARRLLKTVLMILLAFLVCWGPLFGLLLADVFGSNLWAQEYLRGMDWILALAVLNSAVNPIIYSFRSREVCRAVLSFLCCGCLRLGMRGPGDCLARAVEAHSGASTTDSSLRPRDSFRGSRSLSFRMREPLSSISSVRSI
The experiment in a line: Fluorescence dose response cell-based high throughput screening assay for antagonists of the Sphingosine 1-Phosphate Receptor 4 (S1P4). [Related pubchem assays: 1524 (Confirmation in triplicates.), 1510 (Primary screen.)]. Type of assay: functional.

Assay [5] deals with Sphingosine 1-phosphate receptor 1 (Homo sapiens, UniProt P21453). Type of assay: functional.
Assay [6] deals with T3, Microphthalmia-associated transcription factor (Homo sapiens, UniProt O75030).
T3 sequence (O75030 whole entry): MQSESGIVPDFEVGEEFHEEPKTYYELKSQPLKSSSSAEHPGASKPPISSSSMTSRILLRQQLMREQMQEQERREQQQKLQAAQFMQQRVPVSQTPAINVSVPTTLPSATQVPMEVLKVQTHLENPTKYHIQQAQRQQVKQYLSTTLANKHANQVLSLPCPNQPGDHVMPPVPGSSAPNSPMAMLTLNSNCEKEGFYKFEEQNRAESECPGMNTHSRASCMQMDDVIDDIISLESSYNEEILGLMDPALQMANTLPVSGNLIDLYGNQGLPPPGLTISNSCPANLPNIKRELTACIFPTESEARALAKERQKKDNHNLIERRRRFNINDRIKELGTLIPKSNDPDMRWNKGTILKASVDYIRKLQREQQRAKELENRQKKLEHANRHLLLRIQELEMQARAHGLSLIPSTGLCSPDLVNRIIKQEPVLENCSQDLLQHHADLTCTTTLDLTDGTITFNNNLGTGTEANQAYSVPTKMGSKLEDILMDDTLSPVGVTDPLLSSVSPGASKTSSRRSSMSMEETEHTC
The assay is described as follows: reducers of TRPM1 reporter luminescence, concentration series – cell-based, SK-MEL-5, cherry-picked, set 3, MITF inhibitor project, dose response (AID 493073).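 Note: SK-MEL-5 melanoma cells with luciferase driven by the MITF target TRPM1 promoter.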 Type of assay: functional.

A further assay deals with A-375. The experiment in a line: proliferation inhibition in MITF-low A375 cells – cell-based, cherry-pick samples, set 2, counter-screen for MITF modulator project, dose response (AID 540335). Type of assay: functional. To be noted: Homo sapiens. On the technique in general: The purpose of a counterscreen is to sort out artefacts and off-target activity.
Assay [7] can be described thus: Fluorescence-based cell-based high throughput dose response assay for inhibitors of the interaction of nucleotide-binding oligomerization domain containing 2 (NOD2) and the receptor-interacting serine-threonine kinase 2 (RIPK2). Type of assay: functional, Homo sapiens. To be noted: Homo sapiens.
In a further assay the target is Paired box protein Pax-8 (Homo sapiens, UniProt Q06710). The assay is described as follows: PAX8 transcriptional activity inhibition in RMG-I – RMG-I cells, luciferase, cherry-pick, dose response (AID 687027).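 Note: luciferase reporter driven by Pax8 target thyroperoxidase promoter measured by SteadyGlo luminescence.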 Type of assay: functional, cell-based.
Assay [8] can be described thus: A549 cell cytotoxicity, dose response, cytotoxicity control, plate reader, cherry-pick, antagonist series (AID 743412). Type of assay: functional, cell-based.
A short description of assay [9]: toxicity toward HepG2 liver cells – cell-based, plate reader, cherry-pick, antagonist series, cytotoxicity control, dose response (AID 743416). Type of assay: functional.
Assay [10] in a line: blockers of bursicon-stimulated LGR2 cAMP reporter – cell-based, HEK293, CRE-luciferase reporter, cherry pick, set 2, dose response (AID 743343).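 Note: transfected cells were stimulated with diluted bursicon conditioned medium after compound addition.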 Type of assay: functional. In general terms: In a reporter assay the amount or activity of a reporter protein is the signal.
Assay [11] can be described thus: general cell-killing toxicity readout – plate reader, dry powder samples, cytotoxicity control for PAX8 inhibitor project, dose response (AID 743021). Type of assay: functional, cell-based.
Assay [12] can be described thus: blockade of melanocortin 4 receptor signaling – cell-based, plate reader, cherry pick, counter-screen for LGR2 antagonist project, dose response (AID 743444).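 Note: transfected HEK 293 cells stimulated with alpha-MSH peptide; potency of inhibitors of the alpha-MSH evoked signal.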 Type of assay: functional.
A short description of assay [13]: viability loss in HEK293 cells – cell-based, plate reader, cherry-picked samples, cytotoxicity control, dose response (AID 743446). Type of assay: functional.
The nature of assay [14]: viability of uninfected HEp-2 cells – cell-based, HTS, cytotoxicity control for RSV inhibitor project, dose response (AID 2410). Type of assay: functional. To be noted: human respiratory syncytial virus.
The test system of assay [15] is Vero. The experiment in a line: inhibition of WNV-induced cytopathic effect – cell-based, CPE readout (AID 1621). To be noted: Chlorocebus sabaeus. Type of assay: functional.
The test system of assay [16] is Vero. The experiment in a line: cells. Type of assay: functional, cell-based. The settings on record: Chlorocebus sabaeus.
Assay [17] deals with Vero. The assay is described as follows: cells. Type of assay: functional. To be noted: Chlorocebus sabaeus.

Potassium voltage-gated channel subfamily KQT member 2, sequence (O88943 whole entry W236L): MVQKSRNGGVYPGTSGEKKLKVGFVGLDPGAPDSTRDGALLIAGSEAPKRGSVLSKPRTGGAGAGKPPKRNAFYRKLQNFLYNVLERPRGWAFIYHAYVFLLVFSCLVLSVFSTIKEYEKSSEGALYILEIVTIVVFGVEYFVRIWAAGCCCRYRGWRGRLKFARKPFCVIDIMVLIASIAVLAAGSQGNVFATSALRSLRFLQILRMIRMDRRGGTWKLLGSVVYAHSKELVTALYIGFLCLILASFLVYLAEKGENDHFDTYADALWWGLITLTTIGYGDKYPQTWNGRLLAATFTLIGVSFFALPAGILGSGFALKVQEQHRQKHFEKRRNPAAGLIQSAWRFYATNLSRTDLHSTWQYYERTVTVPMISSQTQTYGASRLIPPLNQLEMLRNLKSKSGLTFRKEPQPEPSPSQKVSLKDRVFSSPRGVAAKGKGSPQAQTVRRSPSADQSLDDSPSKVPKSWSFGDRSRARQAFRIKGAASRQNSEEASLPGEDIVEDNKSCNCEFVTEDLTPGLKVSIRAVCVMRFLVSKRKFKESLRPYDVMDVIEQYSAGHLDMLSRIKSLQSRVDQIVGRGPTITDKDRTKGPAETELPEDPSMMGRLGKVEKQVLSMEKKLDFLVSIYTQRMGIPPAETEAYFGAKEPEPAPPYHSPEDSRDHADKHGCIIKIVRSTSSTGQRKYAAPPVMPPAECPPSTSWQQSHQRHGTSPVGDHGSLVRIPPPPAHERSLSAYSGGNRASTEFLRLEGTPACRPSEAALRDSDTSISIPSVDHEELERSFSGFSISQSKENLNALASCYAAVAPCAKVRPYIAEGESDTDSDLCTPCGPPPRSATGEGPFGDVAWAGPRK
Sphingosine 1-phosphate receptor 1, sequence (P21453 whole entry): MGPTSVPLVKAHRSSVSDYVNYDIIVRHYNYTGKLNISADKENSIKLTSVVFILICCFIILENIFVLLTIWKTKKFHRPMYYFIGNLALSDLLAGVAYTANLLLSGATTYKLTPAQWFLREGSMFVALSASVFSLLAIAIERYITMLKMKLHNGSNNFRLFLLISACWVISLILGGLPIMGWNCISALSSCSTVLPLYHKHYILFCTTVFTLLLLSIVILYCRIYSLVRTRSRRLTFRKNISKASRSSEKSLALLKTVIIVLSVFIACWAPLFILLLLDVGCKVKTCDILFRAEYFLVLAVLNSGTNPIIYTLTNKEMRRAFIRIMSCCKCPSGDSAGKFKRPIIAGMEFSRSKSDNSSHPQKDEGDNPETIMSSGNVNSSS
Voltage-gated inwardly rectifying potassium channel KCNH2, sequence (Q12809 whole entry): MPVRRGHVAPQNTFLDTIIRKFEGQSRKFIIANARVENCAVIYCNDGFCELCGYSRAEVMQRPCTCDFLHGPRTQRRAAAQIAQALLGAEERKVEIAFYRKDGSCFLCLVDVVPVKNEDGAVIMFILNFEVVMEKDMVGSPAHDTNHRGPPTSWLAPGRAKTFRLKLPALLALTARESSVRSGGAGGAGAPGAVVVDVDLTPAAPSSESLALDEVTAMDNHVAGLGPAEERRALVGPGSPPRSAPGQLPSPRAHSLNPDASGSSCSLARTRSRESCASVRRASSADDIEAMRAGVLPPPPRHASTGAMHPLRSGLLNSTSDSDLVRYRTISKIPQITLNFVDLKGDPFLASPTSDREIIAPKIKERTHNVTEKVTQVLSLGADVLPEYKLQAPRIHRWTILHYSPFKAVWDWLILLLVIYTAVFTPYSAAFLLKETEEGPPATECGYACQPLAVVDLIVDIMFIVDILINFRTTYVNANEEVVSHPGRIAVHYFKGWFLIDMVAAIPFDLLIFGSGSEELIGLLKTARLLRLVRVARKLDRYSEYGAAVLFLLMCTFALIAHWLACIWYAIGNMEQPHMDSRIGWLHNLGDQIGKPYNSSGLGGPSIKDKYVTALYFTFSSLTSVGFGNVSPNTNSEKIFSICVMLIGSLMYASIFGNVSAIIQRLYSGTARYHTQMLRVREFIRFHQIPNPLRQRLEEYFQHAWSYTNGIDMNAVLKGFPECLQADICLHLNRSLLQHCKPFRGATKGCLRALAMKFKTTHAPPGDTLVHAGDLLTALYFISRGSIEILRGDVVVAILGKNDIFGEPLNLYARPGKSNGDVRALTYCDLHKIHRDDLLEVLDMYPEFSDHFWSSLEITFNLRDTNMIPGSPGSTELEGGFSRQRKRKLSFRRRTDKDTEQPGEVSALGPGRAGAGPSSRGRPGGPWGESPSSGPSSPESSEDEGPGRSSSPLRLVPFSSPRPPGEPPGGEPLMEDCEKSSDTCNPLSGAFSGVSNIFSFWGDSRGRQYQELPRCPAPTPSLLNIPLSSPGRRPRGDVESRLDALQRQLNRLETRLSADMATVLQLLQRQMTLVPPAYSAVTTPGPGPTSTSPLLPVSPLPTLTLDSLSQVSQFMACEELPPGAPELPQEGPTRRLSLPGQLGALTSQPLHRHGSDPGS
Ephrin type-A receptor 4, sequence (Q03137 whole entry): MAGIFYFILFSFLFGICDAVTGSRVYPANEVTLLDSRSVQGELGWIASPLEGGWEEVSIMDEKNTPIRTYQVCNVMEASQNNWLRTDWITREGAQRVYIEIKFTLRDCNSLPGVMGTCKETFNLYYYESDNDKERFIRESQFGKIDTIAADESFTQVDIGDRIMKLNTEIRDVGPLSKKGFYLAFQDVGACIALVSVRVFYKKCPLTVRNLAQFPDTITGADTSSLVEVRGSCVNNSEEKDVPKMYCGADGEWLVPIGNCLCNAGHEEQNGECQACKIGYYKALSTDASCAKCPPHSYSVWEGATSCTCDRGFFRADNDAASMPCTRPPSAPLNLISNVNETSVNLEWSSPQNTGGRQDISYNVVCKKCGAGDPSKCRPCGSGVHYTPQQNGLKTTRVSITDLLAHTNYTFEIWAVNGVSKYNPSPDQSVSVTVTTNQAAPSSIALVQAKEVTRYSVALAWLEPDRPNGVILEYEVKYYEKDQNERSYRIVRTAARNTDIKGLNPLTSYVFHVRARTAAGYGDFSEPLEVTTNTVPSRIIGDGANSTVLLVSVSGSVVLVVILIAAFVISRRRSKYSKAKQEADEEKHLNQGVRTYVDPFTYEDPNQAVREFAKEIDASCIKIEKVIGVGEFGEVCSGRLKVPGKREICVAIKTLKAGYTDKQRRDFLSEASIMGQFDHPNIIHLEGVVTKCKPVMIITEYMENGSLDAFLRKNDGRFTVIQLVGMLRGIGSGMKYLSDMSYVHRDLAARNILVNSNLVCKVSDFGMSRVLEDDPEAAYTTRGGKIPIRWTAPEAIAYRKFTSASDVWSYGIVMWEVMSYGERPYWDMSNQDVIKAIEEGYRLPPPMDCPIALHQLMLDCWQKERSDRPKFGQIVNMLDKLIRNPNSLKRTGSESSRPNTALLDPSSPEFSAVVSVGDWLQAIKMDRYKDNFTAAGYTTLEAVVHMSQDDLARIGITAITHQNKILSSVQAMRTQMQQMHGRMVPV
Paired box protein Pax-8, sequence (Q06710 whole entry): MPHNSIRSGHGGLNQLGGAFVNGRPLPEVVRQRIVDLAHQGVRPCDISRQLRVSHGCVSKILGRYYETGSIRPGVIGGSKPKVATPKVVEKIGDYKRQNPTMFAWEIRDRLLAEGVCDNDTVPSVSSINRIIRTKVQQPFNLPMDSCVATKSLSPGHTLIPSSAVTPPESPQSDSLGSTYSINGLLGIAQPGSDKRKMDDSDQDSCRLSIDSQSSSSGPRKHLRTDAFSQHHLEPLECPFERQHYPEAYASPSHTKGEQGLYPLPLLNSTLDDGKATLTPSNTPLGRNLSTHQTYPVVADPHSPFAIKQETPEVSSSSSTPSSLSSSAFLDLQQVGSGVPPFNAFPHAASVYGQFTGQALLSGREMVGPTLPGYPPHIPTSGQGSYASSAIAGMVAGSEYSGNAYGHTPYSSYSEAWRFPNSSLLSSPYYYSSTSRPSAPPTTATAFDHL

For the compound `O=C(/C=C/c1ccccc1)CC(=O)c1ccccc1O`, in [1], the EC50 is 2.67 µM (active).
On to `Clc1ccc(Nc2ccc(Cl)nn2)cc1`, for which the concentration giving a half-maximal response (EC50) in assay [2] was > 195 µM (not active); in assay [3] it was 7.86 µM (active).
Consider `COC(=O)CSc1nc(-c2ccccc2)cc(-c2ccco2)c1C#N`, for which the concentration for half-maximal inhibition (IC50) at Ephrin type-A receptor 4 is listed as > 100 µM (not active).
`O=c1c(Cl)c(Cl)cnn1-c1ccccc1`: in assay [2], the EC50 is 5.45 µM (active). Also, the IC50 in [4] was 1.86 µM (active); in [5] it was 8.71 µM (active); in assay [7], 49.7 µM (inactive). Also, the AC50 was 9.54 µM (active) in assay [6]; 23.8 µM (active) in the assay on A-375; 6.1 µM (active) on Paired box protein Pax-8; 7.52 µM (active) in [8]; 14.4 µM (active) in assay [9]; 19 µM (active) in assay [10]. Further, the values for the half-maximal activity concentration (AC50) in assay [11], in assay [12] and in assay [13] were 25.8 µM (active), 16.3 µM (active) and 4.49 µM (active), respectively.
With `Cc1c(NC(=O)COC(=O)c2cc(-c3ccc(-c4ccccc4)cc3)nc3ccccc23)c(=O)n(-c2ccccc2)n1C`, the half-maximal cytotoxic concentration (CC50) is 2.93 µM (active) in [14] and 11.5 µM (active) in the assay on Vero [17]. The results for the half-inhibitory concentration (IC50) in the assay with Vero [15], in the assay on Vero [16] and in “cells” were 21.1 µM (active), 2.09 µM (active) and 0.53 µM (active), respectively.
